The source of these data is patent publication US9079974B2, “GH-RH analogs with potent agonistic effects” (The University of Miami, priority 2011, dated 2015).

Entries after “also recorded” stand apart in the source; their conditions may differ. Square brackets hold non-standard residues; d marks the D form. Peptide text beside a SMILES is read from it. * marks the point of attachment. Phe(F5) = N[C@@H](Cc1c(F)c(F)c(F)c(F)c1F)C(=O)O; Desaminotyrosyl = O=C(CCc1ccc(O)cc1)*; NMeY = CN[C@@H](Cc1ccc(O)cc1)C(=O)O; Agmatine = N=C(N)NCCCCN*; Nle = CCCC[C@H](N)C(=O)O; Orn = NCCC[C@H](N)C(=O)O; Abu = CC[C@H](N)C(=O)O; GABA = NCCCC(=O)O

Data set [1] deals with superfused rat pituitary cells. The data set can be described thus: GH release in superfused rat pituitary cell system. The conditions noted are these: 1 nM. The class given is cell-based. The procedure:
Growth hormone releasing is assayed by using a superfused rat pituitary cell system as described in S. Vigh and A. V. Schally, Peptides 5, Suppl: 241-347, 1984, which is incorporated by reference herein. The new synthetic peptide analogs of hGH-RH P20356 and JI-38 as control are administered for 3 minutes (1 mL perfusate) at 1 nM concentration as shown below. Fractions of 1 ml are collected and the GH content in each is determined by ELISA. […] Effect of hGH-RH analogs (1 nM) on the GH release in superfused rat pituitary cell system
Pituitary cells from 2 male rates were used for each channel of the superfusion system. The cells were exposed to 3-min pulses of the new GHRH agonists or to JI-38 as standard every 30 min. Outflowing samples of each channel (1 ml) were collected every 3 min, and GH levels were determined by ELISA.

The test system of data set [2] is GH release. Briefly: In vivo GH release after subcutaneous administration. The note with it: rat, s.c. How it is done: Blood samples are taken from the jugular vein; 5, 15 and 30 minutes or only 15 and 30 minutes after the injection. The blood samples are centrifuged, plasma is removed and the GH level is measured by ELISA. The results are summarized in terms of potency in Table 9.

The target in data set [3] is T1, GHRH receptor (Homo sapiens, UniProt Q02643).
T1 construct: Normal human pituitaries were purchased from the National Hormone and Peptide Program; tissue National Hormone and Peptide Program (A. F. Parlow); host or cells: normal human pituitary, membrane fraction
T1 sequence (Q02643 23-423): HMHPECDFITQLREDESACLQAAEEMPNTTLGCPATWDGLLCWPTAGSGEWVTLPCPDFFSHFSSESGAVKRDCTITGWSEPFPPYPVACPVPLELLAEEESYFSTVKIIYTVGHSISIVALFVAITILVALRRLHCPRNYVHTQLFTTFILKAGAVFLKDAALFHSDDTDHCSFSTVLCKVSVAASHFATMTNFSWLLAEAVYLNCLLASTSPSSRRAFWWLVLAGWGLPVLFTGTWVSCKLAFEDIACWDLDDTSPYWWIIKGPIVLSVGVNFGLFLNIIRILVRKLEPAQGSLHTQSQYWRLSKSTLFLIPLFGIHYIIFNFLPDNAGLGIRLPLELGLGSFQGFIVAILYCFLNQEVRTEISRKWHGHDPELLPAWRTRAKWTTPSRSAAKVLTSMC
The data set can be described thus: GHRH receptor binding, 125I-labeled JV-1-42 ligand competition, human pituitary membrane homogenates (Table 7). The note with it: 125I-labeled JV-1-42, human pituitary membranes. The procedure:
Preparation of human pituitary membrane fraction and receptor binding of GHRH agonists were performed as previously described, by using a sensitive in vitro ligand competition assay based on binding of ^125I-labeled JV-1-42 to human pituitary membrane homogenates. Normal human pituitaries were purchased from the National Hormone and Peptide Program (A. F. Parlow, Los Angeles, County Harbor-UCLA Medical Center, Torrance, Calif.).

Data set [4] relates to GH release. Briefly: In vivo GH release after intravenous administration. The note with it: rat, i.v. The procedure:
The blood samples are centrifuged, plasma is removed and the GH level is measured by ELISA.

Data set [5] concerns the target T1, GHRH receptor. The data set can be described thus: GHRH receptor binding, 125I-labeled JV-1-42 ligand competition, human pituitary membrane homogenates (Table 5). How it is done:
(§1) Receptor binding assay Ligand competition assay with ^125I-labeled [His^1, Nle^27]hGH-RH(1-32)-NH2 was used to determine the binding affinities of the novel hGH-RH agonists to membrane receptors of rat anterior pituitary cells. The methods used have been described in detail (Halmos G, et al. Receptor 3: 87-97, 1993), here by incorporated by reference. Briefly, radioidonated [His^1, Nle^27]hGH-RH(1-32)-NH2 is prepared by the chloramines-T method. […] IC50 is the dose of the tested peptides causing 50% inhibition of specific binding to receptors.
Preparation of human pituitary membrane fraction and receptor binding of GHRH agonists were performed as previously described, by using a sensitive in vitro ligand competition assay based on binding of ^125I-labeled JV-1-42 to human pituitary membrane homogenates. Normal human pituitaries were purchased from the National Hormone and Peptide Program (A. F. Parlow, Los Angeles, County Harbor-UCLA Medical Center, Torrance, Calif.). Briefly, in competitive binding analysis, ^125I-labeled JV-1-42 (˜0.2 nM) was displaced by GHRH agonists at 10^−6 to 10^−12 M.
The final binding affinities were expressed as IC50 values and were calculated by using the LIGAND PC computerized curve-fitting program of Munson and Rodbard as modified by McPherson.

The conditions of data set [6]: given subcutaneously twice a day; cited from earlier work.
Data set [7] addresses T1, GHRH receptor. Briefly: GHRH receptor binding, [His1,125I-Tyr10,Nle27]hGHRH(1-32)NH2 ligand competition, human pituitary membrane homogenates (Table 6). The conditions noted are these: relative to GHRH(1-29) = 1. How it is done: as §1
Preparation of human pituitary membrane fraction and receptor binding of GHRH agonists were performed as previously described, by using a sensitive in vitro ligand competition assay based on binding of ^125I-labeled [His^1, Nle^27]hGHRH(1-32)NH2 to human pituitary membrane homogenates. Normal human pituitaries were purchased from the National Hormone and Peptide Program (A. F. Parlow, Los Angeles, County Harbor—UCLA Medical Center, Torrance, Calif.).

In data set [8] the target is dipeptidylpeptidase IV (DPP-IV) (Homo sapiens, UniProt P27487). The note with it: cited from earlier work.
Sequence of dipeptidylpeptidase IV (DPP-IV) (P27487 39-766 limits assumed, species assumed): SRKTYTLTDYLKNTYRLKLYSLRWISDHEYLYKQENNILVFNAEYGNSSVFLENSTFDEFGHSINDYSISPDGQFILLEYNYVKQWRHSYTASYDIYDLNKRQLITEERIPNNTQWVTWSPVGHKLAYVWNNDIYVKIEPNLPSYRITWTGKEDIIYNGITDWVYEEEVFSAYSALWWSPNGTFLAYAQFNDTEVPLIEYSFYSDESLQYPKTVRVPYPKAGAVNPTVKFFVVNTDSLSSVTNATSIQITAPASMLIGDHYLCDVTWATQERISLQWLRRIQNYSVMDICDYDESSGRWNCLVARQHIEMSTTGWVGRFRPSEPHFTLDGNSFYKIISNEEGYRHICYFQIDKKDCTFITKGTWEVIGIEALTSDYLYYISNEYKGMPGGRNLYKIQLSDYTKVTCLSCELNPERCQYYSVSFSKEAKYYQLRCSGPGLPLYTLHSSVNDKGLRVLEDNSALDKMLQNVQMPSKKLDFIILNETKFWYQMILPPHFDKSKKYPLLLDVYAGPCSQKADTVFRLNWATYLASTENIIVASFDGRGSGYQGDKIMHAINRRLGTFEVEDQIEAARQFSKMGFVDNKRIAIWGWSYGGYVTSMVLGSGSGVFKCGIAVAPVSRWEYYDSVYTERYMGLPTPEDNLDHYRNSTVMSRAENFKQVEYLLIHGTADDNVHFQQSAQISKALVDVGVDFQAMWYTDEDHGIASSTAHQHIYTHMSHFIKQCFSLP

As to `CCCC[C@H](NC(=O)[C@@H](NC(=O)[C@H](CC(=O)O)NC(=O)[C@H](CCC(N)=O)NC(=O)[C@H](CC(C)C)NC(=O)[C@H](CC(C)C)NC(=O)[C@H](CCCN)NC(=O)[C@H](CCCNC(=N)N)NC(=O)[C@H](C)NC(=O)[C@H](CO)NC(=O)[C@H](CC(C)C)NC(=O)[C@H](CCC(N)=O)NC(=O)[C@H](CC)NC(=O)[C@H](CC(C)C)NC(=O)[C@@H](NC(=O)[C@H](CCCN)NC(=O)[C@H](CCCNC(=N)N)NC(=O)[C@H](Cc1ccc(O)cc1)NC(=O)[C@H](CO)NC(=O)[C@H](CCC(N)=O)NC(=O)[C@@H](NC(=O)[C@H](Cc1ccccc1)NC(=O)[C@@H](NC(=O)[C@H](C)NC(=O)[C@H](CC(=O)O)NC(=O)[C@H](C)NC(=O)[C@H](Cc1ccc(O)cc1)NC)[C@@H](C)CC)[C@@H](C)O)C(C)C)[C@@H](C)CC)C(=O)N[C@@H](CC(=O)O)C(=O)NCCCCNC(=N)N` [Peptide P-20356, [N—Me-Tyr^1, Gln^8, Orn^12, Abu^15, Orn^21, Nle^27, Asp^28, Agm^29]hGH-RH(1-29)] (H-[NMeY]ADAIFTQSYR[Orn]VL[Abu]QLSAR[Orn]LLQDI[Nle]D-Agmatine), the “times more potent in vitro than JI-38 (GH release)” value in data set [1] was “about 3 times”. Also, the “GH response after subcutaneous administration (in words)” value in the data set on GH release [2] is recorded as “unusually high responses; also recorded: especially greater growth hormone levels than hGH-RH or JI-38”.

For orientation: IC50 means the concentration that gives 50% inhibition. As for `CCCC[C@H](NC(=O)[C@@H](NC(=O)[C@H](CC(=O)O)NC(=O)[C@H](CCC(N)=O)NC(=O)[C@H](CC(C)C)NC(=O)[C@H](CC(C)C)NC(=O)[C@H](CCCN)NC(=O)[C@H](CCCNC(=N)N)NC(=O)[C@H](C)NC(=O)[C@H](CO)NC(=O)[C@H](CC(C)C)NC(=O)[C@H](CCC(N)=O)NC(=O)[C@H](CC)NC(=O)[C@H](CC(C)C)NC(=O)[C@@H](NC(=O)[C@H](CCCN)NC(=O)[C@H](CCCNC(=N)N)NC(=O)[C@H](Cc1ccc(O)cc1)NC(=O)[C@H](CO)NC(=O)[C@H](CC(N)=O)NC(=O)[C@@H](NC(=O)[C@H](Cc1c(F)c(F)c(F)c(F)c1F)NC(=O)[C@@H](NC(=O)[C@H](C)NC(=O)[C@H](CC(=O)O)NC(=O)[C@@H](C)NC(=O)CCc1ccc(O)cc1)[C@@H](C)CC)[C@@H](C)O)C(C)C)[C@@H](C)CC)C(=O)N[C@@H](CO)C(=O)N[C@@H](CCCNC(=N)N)C(=O)NCCCC(N)=O` [Peptide P-25502, [Dat^1, D-Ala^2, Fpa5^6, Orn^12, Abu^15, Orn^21, Nle^27, Gab^30]hGH-RH(1-30)NH2] (Desaminotyrosyl-[dA]DAI[Phe(F5)]TNSYR[Orn]VL[Abu]QLSAR[Orn]LLQDI[Nle]SR[GABA]-NH2), the IC50 at GHRH receptor [3] is 330 pM; at GHRH receptor [5] (125I-labeled JV-1-42, human pituitary membranes), 70 pM. The “GH response after intravenous administration (in words)” value in the data set with GH release [4] was “most potent”. Moreover, the “GH response after subcutaneous administration (in words)” value in the data set with GH release [2] is on record as “unusually high responses; also recorded: especially greater growth hormone levels than hGH-RH or JI-38”.

For the compound “hGH-RH(1-29)NH2 [GHRH (1-29), reference compound]”, the “share of GH-deficient children in whom linear growth was promoted” value in data set [6] is recorded as “approximately 50%”. For the same compound, the “Relative affinity (Binding potency) vs GHRH” value at GHRH receptor [7] and on GHRH receptor [5] (relative to GHRH(1-29) = 1) was 1 each time.

In the case of “hGH-RH: native human GH-RH, 44 amino acids with an amidated carboxyl terminus”, the “degradation in plasma via DPP-IV cleavage between residues 2 and 3” value in data set [8] is given as “rapidly degraded”.
